Test results as given in patent US10906894B2, “Compounds containing benzo[d][1,3]oxathiole, benzo[d][1,3]oxathiole 3-oxide or benzo[d][1,3]oxathiole 3,3-dioxide and methods/uses thereof as agonists of g protein-coupled receptor 119” (PRAMANA PHARMACEUTICALS INC., priority 2016, dated 2021).

Target: T1, GPR119 (Homo sapiens, UniProt Q8TDV5)
T1 sequence (Q8TDV5 1-335): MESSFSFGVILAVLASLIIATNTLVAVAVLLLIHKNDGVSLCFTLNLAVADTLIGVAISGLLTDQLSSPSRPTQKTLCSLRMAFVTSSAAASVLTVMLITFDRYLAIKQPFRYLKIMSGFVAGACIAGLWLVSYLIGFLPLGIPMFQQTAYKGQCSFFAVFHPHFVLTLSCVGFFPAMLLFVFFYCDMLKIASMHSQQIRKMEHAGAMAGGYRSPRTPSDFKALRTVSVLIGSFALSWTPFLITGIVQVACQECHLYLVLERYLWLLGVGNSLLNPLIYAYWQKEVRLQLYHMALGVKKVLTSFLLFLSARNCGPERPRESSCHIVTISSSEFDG
Assay: LANCE Ultra cAMP assay: stimulation of GPR119-mediated cAMP production in CHO cells stably expressing human GPR119 receptor
Assay type: cell-based
Conditions: for Emax: CHO, read-out: % cAMP Max.
Method: The potency of GPR119 receptor agonists was assessed by measuring the stimulation of GPR119-mediated cAMP production with LANCE Ultra cAMP assay (Perkin Elmer, TRF0264) in CHO cells stably expressing human GPR119 receptor (Chantest, cat. #A633). CHO-GPR119 cells were cultured in DMEM/F12 medium supplemented with 10% FBS and 1% NEAA at 37° C., 5% CO2, aliquoted and frozen in liquid nitrogen.
(§1) For assay, cells were thawed in a water bath at 37° C., washed in Hank's Balanced Salt Solution (HBSS) and resuspended in Stimulation Buffer 1 (SB1) for 30 min: 5 mM HEPES, pH 7.2-7.4, 0.1% BSA in HBSS. […] The ULight-anti-cAMP antibody (Perkin Elmer, TRF0264) was added to the cell suspension making Mix [Cell suspension/4× ULight-anti-cAMP antibodies]. […] The assay plate was centrifuged 200 g, 5 sec.
Serial dilution (100×) of tested compounds were prepared in DMSO in the range of from 30 nM to 1 mM with half-log step in 384-well plates (Greiner, 781280) using Biomek 2000. 10 test concentrations in two repeats were prepared for each CRC. […] The assay plate was incubated 30 minutes at room temperature on a shaker, 250 rpm to allow GPR119 receptor stimulation. The cAMP level was determined according to the standard kit supplier protocol (PerkinElmer, cat. #TRF0264).
(§2) The stock solution of the Eu-cAMP tracer (Perkin Elmer, TRF0264) was diluted 1:100 in cAMP Detection Buffer (Perkin Elmer, TRF0264), making 2× working concentration and added to the assay plate, 10 μL per well. Assay plate was centrifuged 180 g, 1 sec. Then the assay plate was incubated for 60′ at room temperature on shaker, 250 rpm to allow cAMP detection. The TR-FRET signal was measured at Ex-340 nm/Em-615 and Ex-340 nm/Em-665 nm on the reader Tecan M1000. 0% of cAMP stimulation corresponds to the cells with DMSO only, 100% of cAMP stimulation corresponds to the cells with 10 uM Forskolin. The EC50 value defined as the concentration of the drug that gives half-maximal response, were calculated using GraphPad Prizm 5.0 software with forskolin was used as references at each test. Entries 1-17 in Table A-2 show the biological activity of certain representative compounds using the protocol as described above.
as §1, with “cell suspension,” for “cell suspension”
as §2, with “1-14” for “1-17”, “B-2” for “A-2”

[1] = Table B-2 entries 1-14, protocol as described (800 000 cells/mL, 5 uL/well), CHO-GPR119 cells
[2] = Table B-2 entries 15-39, modified protocol, 500 cells/well
[3] = reference ligands in modified protocol, 500 cells/well

Row | SMILES | EC50 [1] | Emax [2] | EC50 [2] | other results
1 | CCc1cnc(N2CCC(COc3ccc(-c4ccc5c(c4)OC[S+]5[O-])cc3F)CC2)nc1 (stereo not drawn) [Example B-19] | 4.8 nM |  |  | 
2 | CC(C)CC(=O)N1CCC(COc2ccc(-c3ccc4c(c3)OC[S+]4[O-])cc2F)CC1 (stereo not drawn) [Example B-23, 1-(4-((2-Fluoro-4-(3-oxido-2H-benzo[d][1,3]oxathiol-6-yl)phenoxy)methyl)-piperidin-1-yl)-3-methylbutane-1-one] | 46.2 nM |  |  | 
3 | COc1cnc(N2CCC(COc3ccc(-c4ccc5c(c4)OC[S+]5[O-])cc3F)CC2)nc1 (stereo not drawn) [Example B-24, 6-(3-Fluoro-4-((1-(5-methoxypyrimidin-2-yl)piperidin-4-yl)methoxy)phenyl)-2H-benzo[d][1,3]oxathiole 3-oxide] | 2.3 nM |  |  | 
4 | CCc1ccnc(N2CCC(COc3ccc(-c4ccc5c(c4)OC[S+]5[O-])cc3F)CC2)n1 (stereo not drawn) [Example B-25] | 31.8 nM |  |  | 
5 | CCc1ccnc(N2CCC(COc3ccc(-c4ccc5c(c4)OCS5)cc3F)CC2)n1 [Example B-26] | > 500 nM |  |  | 
6 | CCOc1cnc(N2CCC(COc3ccc(-c4ccc5c(c4)OC[S+]5[O-])cc3F)CC2)nc1 (stereo not drawn) [Example B-27, 6-(4-((1-(5-Ethoxypyrimidin-2-yl)piperidin-4-yl)methoxy)-3-fluorophenyl)-2H-benzo[d][1,3]oxathiole 3-oxide] | 4.7 nM |  |  | 
7 | CC(C)c1cnc(N2CCC(COc3ccc(-c4ccc5c(c4)OC[S+]5[O-])cc3F)CC2)nc1 (stereo not drawn) [Example B-28, 6-(3-Fluoro-4-((1-(5-isopropylpyrimidin-2-yl)piperidin-4-yl)methoxy)phenyl)-2H-benzo[d][1,3]oxathiole 3-oxide] | 3 nM |  |  | 
8 | [O-][S+]1COc2cc(-c3ccc(OCC4CCN(c5ccc(C(F)(F)F)cn5)CC4)c(F)c3)ccc21 (stereo not drawn) [Example B-29, 6-(3-Fluoro-4-((1-(5-(trifluoromethyl)pyridin-2-yl)piperidin-4-yl)methoxy)phenyl)-2H-benzo[d][1,3]oxathiole 3-oxide] | 52 nM |  |  | 
9 | [O-][S@+]1COc2cc(-c3ccc(OCC4CCN(c5ncc(Cl)cn5)CC4)c(F)c3)ccc21 [Example B-32, (S)-6-(4-((1-(5-chloropyrimidin-2-yl)piperidin-4-yl)methoxy)-3-fluorophenyl)-2H-benzo[d][1,3]oxathiole 3-oxide] | 1.2 nM |  |  | 
10 | CCc1ccnc(N2CCC(COc3ccc(-c4ccc5c(c4)OC[S+]5[O-])cc3F)CC2)n1 (stereo not drawn) [Example B-35, 6-(4-((1-(4-Ethylpyrimidin-2-yl)piperidin-4-yl)methoxy)-3-fluorophenyl)-2H-benzo[d][1,3]oxathiole 3-oxide] |  | 61% | 27.3 nM | 
11 | CCc1cnc(N2CCC(COc3ccc(-c4ccc5c(c4)OCS5)cc3F)CC2)nc1 [Example B-37, 2-(4-((4-(Benzo[d][1,3]oxathiol-6-yl)-2-fluorophenoxy)methyl)piperidin-1-yl)-5-ethylpyrimidine] |  | 79% | 365 nM | 
12 | CC(C)c1cnc(N2CCC(COc3ccc(-c4ccc5c(c4)OCS5)cc3F)CC2)nc1 [Example B-38, 2-(4-((4-(Benzo[d][1,3]oxathiol-6-yl)-2-fluorophenoxy)methyl)piperidin-1-yl)-5-isopropylpyrimidine] |  | 78% | 10.5 nM | 
13 | COc1cnc(N2CCC(COc3ccc(-c4ccc5c(c4)OCS5)cc3F)CC2)nc1 [Example B-39, 2-(4-((4-(Benzo[d][1,3]oxathiol-6-yl)-2-fluorophenoxy)methyl)piperidin-1-yl)-5-methoxpyrimidine] |  | 64% | 2900 nM | 
14 | CC(C)CC(=O)N1CCC(COc2ccc(-c3ccc4c(c3)OCS4)cc2F)CC1 [Example B-40, 1-(4-((4-(Benzo[d][1,3]oxathiol-6-yl)-2-fluorophenoxy)methyl)piperidin-1-yl)-3-methylbutan-1-one] |  | 50% | 2000 nM | 
15 | CCc1cnc(N2CCC(COc3ccc(-c4ccc5c(c4)OC[S@@+]5[O-])cc3F)CC2)nc1 [Example B-45, (S)-6-(4-((1-(5-Ethylpyrimidin-2-yl)piperidin-4-yl)methoxy)-3-fluorophenyl)-2H-benzo[d][1,3]oxathiole 3-oxide] |  | 68% | 2.3 nM | 
16 | COc1cnc(N2CCC(COc3ccc(-c4ccc5c(c4)OC[S@+]5[O-])cc3F)CC2)nc1 [Example B-51, (R)-6-(3-Fluoro-4-((1-(5-methoxypyrimidin-2-yl)piperidin-4-yl)methoxy)phenyl)-2H-benzo[d][1,3]oxathiole 3-oxide] |  | 70% | 40.6 nM | 
17 | CCc1cnc(N2CCC(COc3ccc(-c4ccc5c(c4)OC[S@+]5[O-])cc3F)CC2)nc1 [Example B-52] |  | 73% | 19.5 nM | 
18 | CC(C)c1cnc(N2CCC(COc3ccc(-c4ccc5c(c4)OC[S@+]5[O-])cc3F)CC2)nc1 [Example B-53, (R)-6-(3-fluoro-4-((1-(5-isopropylpyrimidin-2-yl)piperidin-4-yl)methoxy)phenyl)-2H-benzo[d][1,3]oxathiole 3-oxide] |  | 74% | 41 nM | 
19 | [O-][S@+]1COc2cc(-c3cnc(OCC4CCN(c5ncc(Cl)cn5)CC4)nc3)ccc21 [Example B-62, (S)-6-(2-((1-(5-Chloropyrimidin-2-yl)piperidin-4-yl)methoxy)pyrimidin-5-yl)-2H-benzo[d][1,3]oxathiole 3-oxide] |  | 66% | 43.5 nM | 
20 | CCc1cnc(N2CC[C@@H](COc3ccc(-c4ccc5c(c4)OC[S+]5[O-])cc3F)C2)nc1 (stereo partly drawn) [Example B-67, 6-(4-(((R)-1-(5-Ethylpyrimidin-2-yl)pyrrolidin-3-yl)methoxy)-3-fluorophenyl)-2H-benzo[d][1,3]oxathiole 3-oxide] |  | 74% | 54 nM | 
21 | CCc1cnc(N2CC[C@@H](COc3ccc(-c4ccc5c(c4)OCS5)cc3F)C2)nc1 [Example B-69] |  |  | > 10000 nM | 
22 | CCc1cnc(N2CC[C@H](COc3ccc(-c4ccc5c(c4)OC[S@+]5[O-])cc3F)C2)nc1 [Example B-76] |  | 80% | 20.5 nM | 
23 | CCc1cnc(N2CC[C@@H](COc3ccc(-c4ccc5c(c4)OC[S@@+]5[O-])cc3F)C2)nc1 [Example B-77] |  | 81% | 32.5 nM | 
24 | CCc1cnc(N2CC[C@@H](COc3ccc(-c4ccc5c(c4)OC[S@+]5[O-])cc3F)C2)nc1 [Example B-78] |  | 72% | 115 nM | 
25 | [O-][S@+]1COc2cc(-c3ccc(OC[C@H]4CCN(c5ncc(Cl)cn5)C4)c(F)c3)ccc21 [Example B-81, (S)-6-(4-(((S)-1-(5-Chloropyrimidin-2-yl)pyrrolidin-3-yl)methoxy)-3-fluorophenyl)-2H-benzo[d][1,3]oxathiole 3-oxide] |  | 95% | 30 nM | 
26 | C=C[C@@]1(C)CC(=O)[C@]2(O)[C@@]3(C)[C@@H](O)CCC(C)(C)[C@@H]3[C@H](O)[C@H](OC(C)=O)[C@@]2(C)O1 [Forscolin, Forskolin, reference compound] |  |  |  | EC50 [3]: 28.5 nM; maximum cAMP stimulation [3]: 124%
